Laboratory results published in PubChem BioAssay AID248 (DTP/NCI, 2004).
Toxic doses and inconclusive results are not listed.

Tested on: L1210 leukemia ip in BDF1 mice, survival T/C
Assay: NCI In Vivo Anticancer Drug Screen. Data for tumor model L1210 Leukemia (intraperitoneal) in B6D2F1 (BDF1) mice
Settings: endpoint: mean survival time, higher = longer survival
How it was run: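 Survival endpoint. Drug-treated group vs vehicle group, expressed as T divided by C. Tumor passaged by transplantation.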

[1] = dose: 100.0 mg/kg/injection, schedule: Q04DX003 (ip), vehicle: saline with Tween-80
[2] = dose: 200.0 mg/kg/injection, schedule: Q04DX003 (ip), vehicle: saline with Tween-80
[3] = dose: 100.0 mg/kg/injection, schedule: Q01DX001 (ip), vehicle: saline with Tween-80
[4] = dose: 100.0 mg/kg/injection, schedule: Q01DX001 (ip), vehicle: saline
[5] = dose: 200.0 mg/kg/injection, schedule: Q01DX001 (ip), vehicle: saline
[6] = dose: 200.0 mg/kg/injection, schedule: Q04DX003 (ip), vehicle: Klucel (hydroxypropylcellulose) (HPC)
[7] = dose: 400.0 mg/kg/injection, schedule: Q04DX003 (ip), vehicle: Klucel (hydroxypropylcellulose) (HPC)
[8] = dose: 75.0 mg/kg/injection, schedule: Q01DX001 (ip), vehicle: saline
[9] = dose: 300.0 mg/kg/injection, schedule: Q01DX001 (ip), vehicle: saline
[10] = dose: 100.0 mg/kg/injection, schedule: Q04DX003 (ip), vehicle: Klucel (hydroxypropylcellulose) (HPC)
[11] = dose: 100.0 mg/kg/injection, schedule: Q04DX002 (ip), vehicle: saline with Tween-80
[12] = dose: 200.0 mg/kg/injection, schedule: Q04DX002 (ip), vehicle: saline with Tween-80
[13] = dose: 400.0 mg/kg/injection, schedule: Q04DX002 (ip), vehicle: saline with Tween-80
[14] = dose: 100.0 mg/kg/injection, schedule: Q01DX009 (ip), vehicle: Klucel (hydroxypropylcellulose) (HPC)
[15] = dose: 200.0 mg/kg/injection, schedule: Q01DX009 (ip), vehicle: Klucel (hydroxypropylcellulose) (HPC)
[16] = dose: 400.0 mg/kg/injection, schedule: Q01DX009 (ip), vehicle: Klucel (hydroxypropylcellulose) (HPC)

NC(=O)c1ccc[n+](CCO)c1
T/C (dose: 3.1 mg/kg/injection, schedule: Q01DX009 (ip), vehicle: saline): 102 % of control
T/C (dose: 6.25 mg/kg/injection, schedule: Q01DX009 (ip), vehicle: saline): 104 % of control
T/C (dose: 12.5 mg/kg/injection, schedule: Q01DX009 (ip), vehicle: saline): 98 % of control
T/C (dose: 25.0 mg/kg/injection, schedule: Q01DX009 (ip), vehicle: saline): 104 % of control
T/C (dose: 50.0 mg/kg/injection, schedule: Q01DX009 (ip), vehicle: saline): 110 % of control
T/C (dose: 100.0 mg/kg/injection, schedule: Q01DX009 (ip), vehicle: saline): 100 % of control
T/C (dose: 115.0 mg/kg/injection, schedule: Q01DX Z (ip), vehicle: saline): 100 % of control
T/C (dose: 150.0 mg/kg/injection, schedule: Q04DX003 (ip), vehicle: saline): 100 % of control
T/C (dose: 175.0 mg/kg/injection, schedule: Q01DX Z (ip), vehicle: saline): 94 % of control
T/C (dose: 225.0 mg/kg/injection, schedule: Q04DX003 (ip), vehicle: saline): 104 % of control
T/C (dose: 265.0 mg/kg/injection, schedule: Q01DX Z (ip), vehicle: saline): 105 % of control
T/C (dose: 335.0 mg/kg/injection, schedule: Q04DX003 (ip), vehicle: saline): 100 % of control
T/C (dose: 400.0 mg/kg/injection, schedule: Q01DX Z (ip), vehicle: saline): 100 % of control

CCCCCCCCCCCCCCCCCCN1C(=O)C2C(C1=O)C1(Cl)C(Cl)=C(Cl)C2(Cl)C1(Cl)Cl (configuration not stated)
T/C [1]: 96 % of control
T/C [2]: 93 % of control

CCN=C(c1ccc(NC(=O)c2ccc(C(=O)Nc3ccc(C(=NCC)N(CC)C(=O)C(F)(F)C(F)(F)C(F)(F)F)cc3)cc2)cc1)N(CC)C(=O)C(F)(F)C(F)(F)C(F)(F)F
T/C (dose: 1.5 mg/kg/injection, schedule: Q01DX015 (ip), vehicle: methylcellulose (MC)): 96 % of control
T/C (dose: 3.0 mg/kg/injection, schedule: Q01DX015 (ip), vehicle: methylcellulose (MC)): 113 % of control
T/C (dose: 7.5 mg/kg/injection, schedule: Q01DX015 (ip), vehicle: methylcellulose (MC)): 153 % of control
T/C (dose: 12.0 mg/kg/injection, schedule: Q01DX015 (ip), vehicle: methylcellulose (MC)): 124 % of control

O=c1[nH]nnc2nc(Cc3ccc([N+](=O)[O-])cc3)[nH]c12
T/C [3]: 98 % of control

CC1NC(c2ccccc2)N(C(Cc2ccccc2)C(=O)O)C1=O (configuration not stated)
T/C (dose: 50.0 mg/kg/injection, schedule: Q01DX001 (ip), vehicle: saline): 94 % of control
T/C [4]: 89 % of control
T/C [5]: 99 % of control

Cc1ccc2c(c1)CN(Cc1ccccc1)CO2
T/C (dose: 75.0 mg/kg/injection, schedule: Q01DX009 (ip), vehicle: saline): 89 % of control
T/C (dose: 150.0 mg/kg/injection, schedule: Q01DX009 (ip), vehicle: saline): 94 % of control
T/C [6]: 103 % of control
T/C (dose: 300.0 mg/kg/injection, schedule: Q01DX009 (ip), vehicle: saline): 102 % of control
T/C [7]: 97 % of control

O=C(NC(=S)NCc1ccncc1)c1ccccc1
T/C (dose: 100.0 mg/kg/injection, schedule: Q04DX002 (ip), vehicle: Klucel (hydroxypropylcellulose) (HPC)): 100 % of control
T/C (dose: 200.0 mg/kg/injection, schedule: Q04DX002 (ip), vehicle: Klucel (hydroxypropylcellulose) (HPC)): 95 % of control
T/C (dose: 400.0 mg/kg/injection, schedule: Q04DX002 (ip), vehicle: Klucel (hydroxypropylcellulose) (HPC)): 92 % of control

O=C(CBr)OCS(=O)(=O)O
T/C [8]: 102 % of control
T/C (dose: 150.0 mg/kg/injection, schedule: Q01DX001 (ip), vehicle: saline): 96 % of control
T/C [9]: 100 % of control

CP1CCC(O)(C(C)(C)C)CC1 (configuration not stated)
T/C (dose: 75.0 mg/kg/injection, schedule: Q01DX001 (ip), vehicle: other): 101 % of control
T/C (dose: 150.0 mg/kg/injection, schedule: Q01DX001 (ip), vehicle: other): 91 % of control

COC1OC2COC(c3ccccc3)OC2C(OC(=O)c2ccccc2)C1OC(=S)SCc1ccccc1 (configuration not stated)
T/C (dose: 12.5 mg/kg/injection, schedule: Q04DX002 (ip), vehicle: saline): 107 % of control
T/C (dose: 25.0 mg/kg/injection, schedule: Q04DX002 (ip), vehicle: saline): 104 % of control
T/C (dose: 50.0 mg/kg/injection, schedule: Q04DX002 (ip), vehicle: saline): 104 % of control

CC(=O)N(CC#CCN(C(C)=O)c1ccccc1)c1ccccc1
T/C (dose: 100.0 mg/kg/injection, schedule: Q04DX002 (ip), vehicle: other): 111 % of control
T/C (dose: 200.0 mg/kg/injection, schedule: Q04DX002 (ip), vehicle: other): 105 % of control
T/C (dose: 400.0 mg/kg/injection, schedule: Q04DX002 (ip), vehicle: other): 97 % of control

Cc1cc(N(CCCl)CCCl)ccc1C=Nc1cc(Cl)ccc1-n1ccnc1C
T/C (dose: 50.0 mg/kg/injection, schedule: Q04DX003 (ip), vehicle: Klucel (hydroxypropylcellulose) (HPC)): 98 % of control
T/C [10]: 98 % of control
T/C [6]: 101 % of control
T/C [7]: 90 % of control

O=[N+]([O-])c1ccc(/C=C2\c3ccccc3-c3nc4ccccc4nc32)cc1
T/C [8]: 92 % of control
T/C [9]: 91 % of control

C[CH2][Ge]([CH2]C)[CH2]C.C[CH2][Ge]([CH2]C)[CH2]C.C[CH2][Ge][CH2]C
T/C [11]: 103 % of control
T/C [12]: 95 % of control
T/C [13]: 319 % of control

CCOC(=O)C(C(C)=O)C(CCc1cc(OC)ccc1OC)C(C(C)=O)C(=O)OCC (configuration not stated)
T/C [4]: 109 % of control
T/C [5]: 101 % of control
T/C (dose: 400.0 mg/kg/injection, schedule: Q01DX001 (ip), vehicle: saline): 97 % of control

Cc1ccc(NC(=O)NCCCCCCNC(=O)Nc2ccc(C)c(Cl)c2)cc1Cl
T/C [1]: 93 % of control
T/C (dose: 200.0 mg/kg/injection, schedule: Q01DX009 (ip), vehicle: saline with Tween-80): 89 % of control
T/C [2]: 92 % of control
T/C (dose: 400.0 mg/kg/injection, schedule: Q04DX003 (ip), vehicle: saline with Tween-80): 95 % of control

COc1ccc2c(c1)C(=O)CCN2
T/C [14]: 100 % of control
T/C [10]: 102 % of control
T/C [15]: 95 % of control
T/C [6]: 104 % of control
T/C [7]: 93 % of control

CCN(C(=S)Nc1cccc2ccccc12)c1ccccc1
T/C [14]: 100 % of control
T/C [15]: 96 % of control
T/C [16]: 92 % of control

Cc1ccc(NC(=S)N2CCCC(C)C2)cc1C (configuration not stated)
T/C [14]: 102 % of control
T/C [15]: 100 % of control
T/C [16]: 102 % of control

C[n+]1c(/C=C/c2ccnc3c(O)cccc23)sc2ccccc21
T/C (dose: 15.0 mg/kg/injection, schedule: Q01DX001 (ip), vehicle: saline): 105 % of control
T/C (dose: 30.0 mg/kg/injection, schedule: Q01DX001 (ip), vehicle: saline): 97 % of control

NC(N)=N/N=C/N1CCCCC1
T/C (dose: 60.0 mg/kg/injection, schedule: Q01DX Z (oral), vehicle: methylcellulose (MC)): 90 % of control
T/C (dose: 120.0 mg/kg/injection, schedule: Q01DX Z (oral), vehicle: methylcellulose (MC)): 100 % of control
T/C (dose: 240.0 mg/kg/injection, schedule: Q01DX Z (ip), vehicle: methylcellulose (MC)): 110 % of control
T/C (dose: 240.0 mg/kg/injection, schedule: Q01DX Z (oral), vehicle: methylcellulose (MC)): 89 % of control
T/C (dose: 300.0 mg/kg/injection, schedule: Q01DX Z (oral), vehicle: methylcellulose (MC)): 100 % of control
T/C (dose: 360.0 mg/kg/injection, schedule: Q01DX Z (ip), vehicle: methylcellulose (MC)): 103 % of control
T/C (dose: 400.0 mg/kg/injection, schedule: Q01DX Z (oral), vehicle: methylcellulose (MC)): 105 % of control
T/C (dose: 480.0 mg/kg/injection, schedule: Q01DX Z (ip), vehicle: methylcellulose (MC)): 107 % of control
T/C (dose: 480.0 mg/kg/injection, schedule: Q01DX Z (oral), vehicle: methylcellulose (MC)): 101 % of control
T/C (dose: 720.0 mg/kg/injection, schedule: Q01DX Z (ip), vehicle: methylcellulose (MC)): 95 % of control

O=C(O)c1ccccc1Cc1cccs1
T/C [3]: 98 % of control
T/C (dose: 200.0 mg/kg/injection, schedule: Q01DX001 (ip), vehicle: saline with Tween-80): 95 % of control
T/C (dose: 400.0 mg/kg/injection, schedule: Q01DX001 (ip), vehicle: saline with Tween-80): 92 % of control

Cc1cccc(Cl)c1OCC(O)COc1c(C)cccc1Cl
T/C [11]: 92 % of control
T/C [12]: 95 % of control
T/C [13]: 95 % of control
